Laboratory results published in article PMC9858543, “Design, synthesis and evaluation of 2, 6, 8-substituted Imidazopyridine derivatives as potent PI3Kα inhibitors” (Journal of Enzyme Inhibition and Medicinal Chemistry, 2023).
Where two headings read alike, the source gives them in different places.

What was measured:
SKOV-3 = assay: Cell proliferation assay (CellTiter-Glo), SKOV-3; assay type: cell-based; conditions: Homo sapiens, SK-OV-3; 72 h exposure; mean ± SD of two experiments
Method: (§1) Given the desirable enzyme activity profile, these compounds were further assayed for their antiproliferative activities against five independent human tumour cell line collections harbouring PIK3CA mutation, including human ovarian cancer cell line SKOV-3, human breast cancer T47D and MCF-7, human lung cancer H1975 and H460. […] In general, the cellular activity of tested derivatives corrected with their effects on kinase activity.
(§2) All target compounds were evaluated for antiproliferative potency against SKOV-3, T47D,NCI-H1975, NCI-H460,and MCF-7 tumour cell lines using a CellTiter-Glo® Luminescent Cell Viability Assay. The human tumour cell lines used were obtained from the ATCC or Shanghai ZhongQiaoXinZhou Biotech. All the mediums and FBS were Gibco. T47D, H1975 and NCI-H460 tumour cells were cultured in RPMI1640 medium supplemented with 10% FBS. SKOV-3 was cultured in McCoy’s 5 A medium supplemented with 10%FBS. The day before treatment with compounds, cells were seeded at a density of 2000 or 5000 in each well of a 96-well plate. The tumour cells were then treated with 3-fold serial diluted compound or DMSO control in the incubator at 37 °C and 5% CO2 for 3 days, prior to the addition of CellTiter-Glo reagents (Promega) and reading of luminescence using a PerkinElmer Envision plate reader. Data were analysed using GraphPad Prism 7.0.

T47D = assay: Cell proliferation assay (CellTiter-Glo), T47D; assay type: cell-based; conditions: Homo sapiens, 72 h exposure, mean ± SD of two experiments
Method: as §1, §2

NCI-H1975 = assay: Cell proliferation assay (CellTiter-Glo), NCI-H1975; assay type: cell-based; conditions: Homo sapiens, 72 h exposure, mean ± SD of two experiments
Method: as §1, §2

NCI-H460 = assay: Cell proliferation assay (CellTiter-Glo), NCI-H460; assay type: cell-based; conditions: Homo sapiens, 72 h exposure, mean ± SD of two experiments
Method: as §1, §2

MCF-7 = assay: Cell proliferation assay (CellTiter-Glo), MCF-7; assay type: cell-based; conditions: Homo sapiens, MCF7; 72 h exposure; mean ± SD of two experiments
Method: as §1, §2

T47D cells = assay: Cell cycle analysis, PI flow cytometry; assay type: cell-based, human; conditions: 24 h
Method: Considering compound 35 was most sensitive in T47D cells, we decided to get some mechanistic insight into the mode of action in T47D cell line. As such, the annexin V/7-AAD staining and cell cycle phase distribution have been carried out. […] Furthermore, T47D cells were also treated with different concentrations of 35, and the percentage of apoptotic cells was measured.
For cell cycle analysis, T47D cell (1 × 10^6) were seeded in 6-well plates overnight and treated with different concentrations of compound 35 and DMSO control on the next day. After 24 h, the cells were collected by EDTA-free trypsinization, centrifuged at 1500 rpm for 5 min, and fixed in 75% ethanol at −20 °C for 1 h. The cells were then centrifuged at 2000 rpm for 5 min, resuspended in 500 µL PI/Rnase Staining Buffer, incubated for 30 min at room temperature, and analysed using flow cytometry. The data were analysed using Modfit software. For cell apoptosis analysis, T47D cell were seeded in 6 well-plates and treated with DMSO or compound 35 for 24 h. The treated cells were collected and washed with cold PBS for three times, resuspended in 185 µL binding buffer containing 5 μL Annexin V-FITC Apoptosis Detection Kit and 10 μL 7-AAD Viability Staining Solution for 15 min at room temperature in the dark. Apoptotic cells were analysed by flow cytometer.

[1] = Liver microsomal stability assay, RLM; assay type: in vitro ADME, rat
Method: (§3) The metabolic stability of compound 35 was determined in human or SD rat liver microsomes, with and without the NADPH regenerating system. Briefly, compound 35 was incubated with microsomes (human microsome, CORNING, lot No. 38296; rat microsome, Xenotech, Lot No. 2110178) (0.5 mg protein/mL) at 1 μM at 37 °C in potassium phosphate buffer (100 mM at pH 7.4 with 10 mM MgCl2). The reactions were initiated by adding prewarmed cofactors (1 mmol NADPH). After incubation for different times (0, 5, 10, 20, 30, and 60 min) at 37 °C, cold acetonitrile containing 200 ng/mL tolbutamide and 200 ng/mL labetalol as internal standards was added to precipitate the protein. Then, the samples were centrifuged, and the supernatants were transferred into HPLC water, mixed by plate shaker for 10 min prior to LC − MS/MS analysis.

[2] = Liver microsomal stability assay, HLM; assay type: in vitro ADME, human
Method: as §3

[3] = Parallel artificial membrane permeability assay (Egg-PAMPA); assay type: in vitro ADME; conditions: incubation 4 h; for Papp at 4 h, 10 μM: PAMPA
Method: 10.0 μM donor solution (5% DMSO) was prepared by diluting of working solution with PBS. The donor solution was added to each well of the donor plate, whose PVDF membrane was precoated with 5 µL of 1% lecithin/dodecane mixture. Duplicates were prepared.Then, PBS was added to each well of the PTFE acceptor plate. The donor plate and acceptor plate were combined and incubated for 4 h at room temperature with shaking at 300 rpm. Acceptor samples and donor samples were prepared and analysed by LC-MS/MS.

CYP2C19 = target: T1, CYP2C19 (Homo sapiens, UniProt P33261); assay: CYP450 inhibition assay in human liver microsomes; assay type: in vitro ADME; conditions: 10 μM
T1 construct: tissue Lot No. 38292; host or cells: human liver microsomes
Method: (§4) Cytochrome P450 inhibition was evaluated in human liver microsomes (0.253 mg/mL, Lot No. 38292) using five specific probe substrates (CYP1A2, 10 μM phenacetin; CYP2D6, 5 μM dextromethorphan; and CYP3A4, 2 μM midazolam; 2C9, 5 μM Diclofenac; 2C19, 30 μM S-mephenytoin) and positive control in the presence of multiple concentrations of the test compound. After pre-warm at 37 °C for 10 min, the reaction was initiated by the addition of NADPH. The mixture was incubated at 37 °C for 10 min, terminated by the addition of cold stop solution (200 ng/mL tolbutamide and 200 ng/mL labetalol in acetonitrile). The samples were centrifuged, and the supernatants were analysed by LC − MS/MS.

CYP2C9 = target: T2, CYP2C9 (Homo sapiens, UniProt P11712); assay: CYP450 inhibition assay in human liver microsomes; assay type: in vitro ADME; conditions: 10 μM
T2 construct: tissue Lot No. 38292; host or cells: human liver microsomes
Method: as §4

CYP2D6 = target: T3, CYP2D6 (Homo sapiens, UniProt P10635); assay: CYP450 inhibition assay in human liver microsomes; assay type: in vitro ADME; conditions: 10 μM
T3 construct: tissue Lot No. 38292; host or cells: human liver microsomes
Method: as §4

CYP3A4 = target: T4, CYP3A4 (Homo sapiens, UniProt P08684); assay: CYP450 inhibition assay in human liver microsomes; assay type: in vitro ADME; conditions: 10 μM
T4 construct: tissue Lot No. 38292; host or cells: human liver microsomes
Method: as §4

T4 sequence (P08684 whole entry): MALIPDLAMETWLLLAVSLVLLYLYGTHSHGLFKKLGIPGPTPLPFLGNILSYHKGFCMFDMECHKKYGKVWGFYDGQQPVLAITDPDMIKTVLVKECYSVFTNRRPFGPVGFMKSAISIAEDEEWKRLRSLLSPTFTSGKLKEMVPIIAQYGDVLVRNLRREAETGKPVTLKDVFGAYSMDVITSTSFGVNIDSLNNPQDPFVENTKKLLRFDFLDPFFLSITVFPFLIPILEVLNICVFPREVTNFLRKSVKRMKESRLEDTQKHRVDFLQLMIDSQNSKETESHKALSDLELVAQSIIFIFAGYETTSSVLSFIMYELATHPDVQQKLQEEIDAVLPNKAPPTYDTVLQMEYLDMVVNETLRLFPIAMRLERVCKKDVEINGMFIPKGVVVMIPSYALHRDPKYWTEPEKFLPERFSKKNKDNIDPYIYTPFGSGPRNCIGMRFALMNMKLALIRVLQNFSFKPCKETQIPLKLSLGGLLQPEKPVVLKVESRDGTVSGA
T3 sequence (P10635 whole entry): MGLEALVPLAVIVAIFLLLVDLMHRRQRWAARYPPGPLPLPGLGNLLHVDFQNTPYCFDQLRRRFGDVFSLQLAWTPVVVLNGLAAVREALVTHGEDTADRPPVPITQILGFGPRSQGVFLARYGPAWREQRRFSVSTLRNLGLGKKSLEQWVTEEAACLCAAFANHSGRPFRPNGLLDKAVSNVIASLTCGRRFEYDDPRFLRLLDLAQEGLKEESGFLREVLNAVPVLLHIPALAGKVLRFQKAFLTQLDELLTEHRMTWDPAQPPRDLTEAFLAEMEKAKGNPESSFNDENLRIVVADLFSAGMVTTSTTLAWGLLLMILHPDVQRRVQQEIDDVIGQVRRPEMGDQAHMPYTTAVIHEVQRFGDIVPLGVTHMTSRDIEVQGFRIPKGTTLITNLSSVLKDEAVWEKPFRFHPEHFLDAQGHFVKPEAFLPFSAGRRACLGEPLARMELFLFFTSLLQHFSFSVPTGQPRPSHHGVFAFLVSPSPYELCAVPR
T1 sequence (P33261 whole entry): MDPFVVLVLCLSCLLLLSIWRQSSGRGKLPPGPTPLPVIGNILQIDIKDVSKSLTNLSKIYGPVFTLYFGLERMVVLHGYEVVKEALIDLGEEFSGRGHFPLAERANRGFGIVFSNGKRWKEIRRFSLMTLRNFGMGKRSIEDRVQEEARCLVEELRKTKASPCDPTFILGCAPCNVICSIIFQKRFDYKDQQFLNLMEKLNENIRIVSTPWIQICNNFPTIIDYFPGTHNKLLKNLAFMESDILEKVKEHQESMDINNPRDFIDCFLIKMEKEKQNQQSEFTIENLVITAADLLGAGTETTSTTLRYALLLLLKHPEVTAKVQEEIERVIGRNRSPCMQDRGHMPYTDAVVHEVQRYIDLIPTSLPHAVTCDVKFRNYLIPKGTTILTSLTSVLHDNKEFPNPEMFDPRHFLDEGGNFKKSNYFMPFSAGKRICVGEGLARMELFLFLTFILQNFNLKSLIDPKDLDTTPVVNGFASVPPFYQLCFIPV
T2 sequence (P11712 whole entry): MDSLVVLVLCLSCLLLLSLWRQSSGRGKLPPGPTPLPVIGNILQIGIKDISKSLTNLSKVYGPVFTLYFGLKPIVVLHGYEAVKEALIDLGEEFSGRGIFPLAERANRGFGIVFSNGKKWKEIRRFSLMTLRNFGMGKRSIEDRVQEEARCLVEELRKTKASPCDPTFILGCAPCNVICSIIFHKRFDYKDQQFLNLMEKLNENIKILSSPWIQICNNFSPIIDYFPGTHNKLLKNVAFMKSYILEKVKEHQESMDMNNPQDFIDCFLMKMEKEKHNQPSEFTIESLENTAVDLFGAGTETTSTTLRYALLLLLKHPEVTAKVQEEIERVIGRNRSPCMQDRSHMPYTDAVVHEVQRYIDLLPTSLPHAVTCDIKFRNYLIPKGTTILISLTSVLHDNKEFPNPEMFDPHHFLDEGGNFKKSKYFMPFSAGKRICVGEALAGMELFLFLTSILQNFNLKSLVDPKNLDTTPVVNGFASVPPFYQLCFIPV

Structure (SMILES): COc1ncc(-c2cc(C)cn3cc(C(=O)N4CCCC4)nc23)cc1NS(=O)(=O)c1ccc(F)cc1 [Compound 35, 4-Fluoro-N-(2-methoxy-5–(6-methyl-2-(pyrrolidine-1-carbonyl)Imidazo[1,2-a]pyridin-8-yl)pyridin-3-yl)benzenesulfonamide]
- IC50 (SKOV-3): 26.6 ± 1.3 µM
- IC50 (T47D): 7.9 ± 0.8 µM
- IC50 (NCI-H1975): 32.1 ± 2.4 µM
- IC50 (NCI-H460): 17.7 ± 2 µM
- IC50 (MCF-7): 9.4 ± 0.6 µM
- cell cycle effect (T47D cells): S cell cycle arrest
- Remaining (T = 60min) ([1]; 1 μM, 60 min): 31.5%
- microsomal CLint at 1 μM ([1]; SD, rat, rat liver microsomes, pH 7.4, 0.5 mg protein/mL, read-out: Metabolic stability CL int): 43.4 µL/min/mg
- half-life at 1 μM ([1]; SD, rat, rat liver microsomes, pH 7.4, 0.5 mg protein/mL, read-out: Metabolic stability T1/2): 31.9 min
- Remaining (T = 60min) ([2]; 1 μM, 60 min): 42.7%
- microsomal CLint at 1 μM ([2]; human, human liver microsomes, pH 7.4, 0.5 mg protein/mL, read-out: Metabolic stability CL int): 30.7 µL/min/mg
- half-life at 1 μM ([2]; human, human liver microsomes, pH 7.4, 0.5 mg protein/mL, read-out: Metabolic stability T1/2): 45.1 min
- Mean Pe ([3]; 10 μM): higher than 10 nm/s
- Papp at 4 h, 10 μM ([3]; read-out: Mean Pe): 1.54 ×10⁻⁶ cm/s
- Papp at 4 h, 10 μM ([3]; read-out: Permeability): > 1 ×10⁻⁶ cm/s
- CYP2C19 % inhibition (CYP2C19): 25.9%
- CYP2C9 % inhibition (CYP2C9): 30.6%
- CYP2D6 % inhibition (CYP2D6): 13.5%
- CYP3A4 % inhibition (CYP3A4): 42.6%
